The results in this text go back to US9855310B2, “Coix seed oil containing 8 triglycerides, and pharmaceutical preparation and use thereof” (ZHEJIANG KANGLAITE GROUP CO., LTD., priority 2014, dated 2018).

In brackets after ≈: the same amount, converted by molar mass. Structures can show the parent of a compound that is named as a salt. Marks after values point to notes of the source that are not given here.

The subject of one series is S180 sarcoma. The series is described as follows: S180 sarcoma transplanted in mice. In kind it is in vivo, Kunmin mice. To be noted: ip × 2(1, 3). The method, then:
The injection of the invention (10 g/100 ml), Cyclophosphamide (CTX), Mitoxantrone (DHAD), Mitomycin (MMC) and normal saline
Each mouse was inoculated with 0.2 ml of the suspension subcutaneously at the right axilla, and the mice were grouped randomly. The administration began from the next day according to the dosage program in Table 7. […] Weights of tumor were compared and inhibition rates were calculated for each group.

The test system of series [1] is A549 (human lung cancer cells). The series is described as follows: Inhibition on human tumor cell lines in MTT method in vitro. In kind it is cell-based. An excerpt: (§1) (1) Cell lines: PANC-1 (human pancreatic cancer cells), SKOV3 (human ovarian cancer cells), MCF-7 (human breast cancer cells), Bcap-37 (human breast cancer cells), SMMC-7721 (human hepatic cancer cells), HepG-2 (human hepatic cancer cells), A549 (human lung cancer cells) and H460 (human lung cancer cells), storaged and passaged maintainably in Research and Evaluation Center for Pharmacology, Shanghai Institute of Pharmaceutical Industry; The inhibition effects of samples on the above-mentioned cell lines were detected by using MTT method. The specific procedures were as follows: (1) Cell culture: (a) Storaged cells were taken out from the liquid nitrogen, thawed quickly in a 37 water bath, then aseptically transferred into 6 ml of cellular medium in a 10 ml centrifugal tube, and centrifuged at 1000 rpm for 5 min. The supernatant was discarded, then the precipitated cells were re-suspensed in 5-6 ml cellular media by pipetting and transferred into a flask in a 37 incubator for cell culture; (b) Next day, the flask was taken out from the incubator and the used medium was discarded, then the cells were incubated in 5-6 ml fresh medium in the 37 incubator; (c) On the third day, the flask was taken out from the incubator and the used medium was discarded, then 2-3 ml of PBS (pH7.4) was added into the flask with rocking for cleaning it and the used PBS was discarded. […] The flask was capped and placed in a 37 incubator for about 3 min, and the separation of cells from the flask wall was observed under the microscope. 2 ml of cellular medium was added and cells were separated completely from the flask wall by pipetting, then the cell suspension was transferred into 2 separate clean flasks, each containing 5-6 ml medium. The cell suspension was well-distributed by pipetting, then the flask was placed in a 37 incubator. (d) Step (c) was repeated every other day. In the whole cultivation process, adherent cells were not allowed to grow too dense and suspension cells were always maintained at a logarithmic growth stage. (2) Preparation of the sample and the control: A proper amount of sample of Coix seed oil (oil of Job's tears seed) was dissolved in DMSO to obtain a solution in a concentration of 10 mg/ml. […] The correspondingly diluted DMSO solutions, as controls, were added into the wells of the microplate. (4) Cells in a logarithmic growth stage were trypsinized and washed, then re-suspended in the medium containing 10% calf serum. The number of living cells was counted in Trypan blue dye exclusion method and cell suspensions were adjusted into a density of 2×10^5 cell/ml. (5) The cell-contained 96 well flat-bottom microplate was placed in a 37 incubator and cells were incubated under 5% CO2 for 48 h. (6) 20 μl of 5 mg/ml MTT solution was added into each well and cells were incubated continuously in the incubator for 3-4 h. (7) 100 μl of crystal dissolving solution was added into each well and cells were incubated continuously in the incubator overnight, so as to dissolve the resulted formazan crystals sufficiently. Then, the absorbance value was measured at 570 nm for each well. […] The calculation formula was as follows: (1−mean absorbance of experimental wells/mean absorbance of control wells)×100%

Series [2] concerns MCF-7 (human breast cancer cells). The description is as above. The class given is cell-based. To be noted: MCF7.
From the text: as §1

Series [3] has as its system H460 (human lung cancer cells). The description is as above. In kind it is cell-based. The settings on record: NCI-H460.
From the text: as §1

Series [4] concerns PANC-1 (human pancreatic cancer cells). Described as above. The class given is cell-based.
From the text: as §1

The subject of series [5] is SMMC-7721 (human hepatic cancer cells). Described as above. In kind it is cell-based.
From the text: as §1

Series [6] has as its system SKOV3 (human ovarian cancer cells). Described as above. To be noted: SK-OV-3. The class given is cell-based.
From the text: as §1

For series [7], the system named is HepG-2 (human hepatic cancer cells). Described as above. The class given is cell-based. To be noted: HepG2.
From the text: as §1

The subject of series [8] is Bcap-37 (human breast cancer cells). Described as above. In kind it is cell-based. To be noted: Bcap37.
From the text: as §1

For series [9], the system named is MDA-MB-435 human breast cancer. The series is described as follows: MDA-MB-435 human breast cancer transplanted in nude mice. To be noted: 50 mg/kg, ip × 1. The class given is in vivo, BALB/C nude mice. The method, then: (§2) Each nude mouse was inoculated with 0.2 ml of the suspension at the right axilla subcutaneously, and the mice were grouped randomly. The administration began from the 7th day after the inoculation. 18 Days after the inoculation, the mice were sacrificed. Tumor blocks were taken out and weighed. Differences of tumor weight between each experimental group and the control group were compared, and tumor inhibition rates and Q values were calculated.

Series [10] deals with FC-3M human prostate cancer. The series is described as follows: FC-3M human prostate cancer transplanted in nude mice. The class given is in vivo, BALB/C nude mice. To be noted: iv × 1.
Protocol: The injection of the invention (10 g/100 ml), Leuprolide acetate (Lupron) and normal saline
Tumor blocks of well-grown FC-3M human prostate cancer were homogenized in normal saline (1:4). Each nude mouse was inoculated with 0.2 ml of the suspension at the right axilla subcutaneously, and the mice were grouped randomly. The administration began from the next day. 21 Days after the inoculation, the mice were sacrificed. Tumor blocks were taken out and weighed. Differences of tumor weight between each experimental group and the control group were compared and the tumor inhibition rates were calculated.
The test system of another series is QGY human hepatoma. The series is described as follows: Growth of QGY human hepatoma transplanted in nude mice. To be noted: ip × 7qd.
The subject of another series is W256 cancer sarcoma. The series is described as follows: W256 cancer sarcoma transplanted in rats. In kind it is in vivo, Wistar rats. As to the method:
The injection of the invention (10 g/100 ml), Cyclophosphamide (CTX) and normal saline
W256 cancer sarcoma: inoculated in Wistar rats, 50-60 g, female
Ascitic fluid of rats with well-grown W256 cancer sarcoma was diluted with normal saline to obtain a cell suspension of about 1-2×10^7 cells/ml. Each rat was inoculated with 0.2 ml of the suspension at the right axilla subcutaneously. The rats were grouped randomly next day and began administration. Two weeks later, animals were sacrificed and dissected to take out the tumor block. Weights of tumor were compared between each experimental group and the control group and tumor inhibition rates were calculated.

Another series has as its system LM-3 human hepatoma. The series is described as follows: LM-3 human hepatoma transplanted in nude mice. To be noted: ip × 7qd.
The test system of series [11] is PANC-1 human pancreatic cancer. The series is described as follows: PANC-1 human pancreatic cancer transplanted in nude mice. To be noted: 60 mg/kg, iv × 1. In kind it is in vivo, BALB/C nude mice.
Protocol: (§3) Q value of antitumor effect in drug combination was calculated according to Jin's formula: Q=Ea+b/(Ea+Eb−Ea×Eb) Wherein Ea+b=the tumor inhibition rate of drug combination, Ea or Eb=the tumor inhibition rate of drug A or drug B, respectively.
Tumor blocks of well-grown PANC-1 human pancreatic cancer were inoculated subcutaneously in 4-week-old female BALB/C nude mice. The nude mice were grouped randomly and administered. One week after the end of the administration, the mice were sacrificed and dissected. Tumor blocks were taken out and weighed. Differences of tumor weight between each experimental group and the control group were compared and the tumor inhibition rates were calculated.
Series [12] deals with Bcap-37 human breast cancer. The series is described as follows: Bcap-37 human breast cancer transplanted in nude mice. The class given is in vivo, BALB/C nude mice. To be noted: 25 mg/kg, ip × 1. As to the method:
The injection of the invention (10 g/100 ml), Docetaxel injection (Taxotere, 20 mg/vial) and normal saline
Bcap-37 human breast cancer: inoculated in BALB/C nude mice (SPF grade), 18-20 g, female
as §2, with “Tumor blocks of well-grown Bcap-37 human breast cancer were homogenized in normal saline to obtain cell suspensions in the concentration of 1-2×10^7 cells/ml. Each” for “Each”, “20” for “18”

In a further series the test system is A549 human lung cancer. The series is described as follows: Growth of A549 human lung cancer transplanted in nude mice. The class given is in vivo, BALB/C nude mice. To be noted: ip × 7qd. The method, then:
The injection of the invention (10 g/100 ml), Cisplatin (Qilu Pharmaceutical Co., Ltd), blank fat emulsion and normal saline

From the text for LM-3 human hepatoma: When the inoculated tumor could be touched, the mice were randomly grouped and administered according to the experimental design program. All contacted feed, padding, cages and equipment, etc., should be autoclaved prior to use. The nude mice were fed in a laminar flow rack. Tumor sizes and animal weights were observed and tested dynamically. Mice in each group were sacrificed 3 weeks later or so, and tumors were surgically removed and weighed.
LM-3 human hepatoma cells cryopreserved in liquid nitrogen were recovered, and incubated in a 37 incubator under 5% CO2. Other steps were the same as mentioned in 2-B.
Protocol for QGY human hepatoma: A549 Human lung cancer cells cryopreserved in liquid nitrogen were recovered, and incubated in a 37 incubator under 5% CO2. After being subcultured, cells in a logarithmic growth stage were distributed with normal saline to be a cell suspension in a concentration of 1-2×10^7 cells/ml. The cell suspension was inoculated into BALB/C nude mice (SPF grade, 18-20 g, 6 weeks old, male) subcutaneously at right axillary. The tumor tissues were aseptically taken from the 2nd generation of xenograft model of A549 human lung cancer in a vigorous growth stage and cut into small uniform pieces in the size of 1-2 mm^3. The right axillary of each nude mouse was inoculated one piece subcutaneously via a trocar. When the inoculated tumor could be touched, the mice were randomly grouped and administered according to the experimental design program. All contacted feed, padding, cages and equipment, etc., should be autoclaved prior to use. The nude mice were fed in a laminar flow rack. Tumor sizes and animal weights were observed and tested dynamically. Mice in each group were sacrificed 3 weeks later or so, and tumors were surgically removed and weighed.
as §3
QGY human hepatoma cells cryopreserved in liquid nitrogen were recovered, and incubated in a 37 incubator under 5% CO2.

Take `CO[C@@]12[C@H](COC(N)=O)C3=C(C(=O)C(C)=C(N)C3=O)N1C[C@@H]1N[C@@H]12` [MMC, Mitomycin]: in the series on S180 sarcoma (1.5 mg/kg), the Inhibition rate % is reported as 39.5% and the “Weight of tumor (g) x ± SD” value was 0.95 ± 0.16 g.
The term IC50 denotes the concentration that gives 50% inhibition. With `CC(=O)O[C@H]1C(=O)[C@@]2(C)[C@H]([C@H](OC(=O)c3ccccc3)[C@]3(O)C[C@H](OC(=O)[C@H](O)[C@@H](NC(=O)c4ccccc4)c4ccccc4)C(C)=C1C3(C)C)[C@]1(OC(C)=O)CO[C@@H]1C[C@@H]2O` [Taxol, Paclitaxel], the IC50 in [1] came out at 0.46 µg/mL (≈ 0.539 µM); in series [2], 0.18 µg/mL (≈ 0.211 µM); in series [3] it was 0.49 µg/mL (≈ 0.574 µM); in [4], 0.44 µg/mL (≈ 0.515 µM); in series [5], 0.41 µg/mL (≈ 0.48 µM); in series [6], 0.22 µg/mL (≈ 0.258 µM). In addition, the half-inhibitory concentration (IC50) in series [7] came to 0.45 µg/mL (≈ 0.527 µM); in [8], 0.28 µg/mL (≈ 0.328 µM). Also, the Inhibition rate % in series [9] was 62.87%.
As for `CCNC(=O)[C@@H]1CCCN1C(=O)[C@H](CCCNC(=N)N)NC(=O)[C@H](CC(C)C)NC(=O)[C@@H](CC(C)C)NC(=O)[C@H](Cc1ccc(O)cc1)NC(=O)[C@H](CO)NC(=O)[C@H](Cc1c[nH]c2ccccc12)NC(=O)[C@H](Cc1c[nH]cn1)NC(=O)[C@@H]1CCC(=O)N1` [Lupron, Leuprolide acetate], in [10] (0.75 ml/kg), the Inhibition rate % stood at 35.1% and the “Weight of tumor (g) x ± SD” value is given as 0.98 ± 0.26 g. Moreover, in series [10] (1.5 ml/kg), the Inhibition rate % is 47.68% and the “Weight of tumor (g) x ± SD” value was 0.79 ± 0.16 g.
With `COc1cccc2c1C(=O)c1c(O)c3c(c(O)c1C2=O)C[C@@](O)(C(=O)CO)C[C@@H]3O[C@H]1C[C@H](N)[C@H](O)[C@H](C)O1` [Adriamycin], in the series with QGY human hepatoma (1 mg/kg), the Inhibition rate % worked out at 35.48%, the “Weight of animal start/end: end” value was determined as 24.5, the “Weight of animal start/end: start” value was 21.5 and the “Weight of tumor (g) x ± SD” value worked out at 0.742 ± 0.19 g. In the series with QGY human hepatoma (2 mg/kg), the Inhibition rate % is on record as 68.87%, the “Weight of animal start/end: end” value is reported as 23.2 and the “Weight of tumor (g) x ± SD” value is recorded as 0.358 ± 0.12 g.
As for `O=P1(N(CCCl)CCCl)NCCCO1` (centres unmarked) [cyclophosphamide, Cyclophosphamide], the “Weight of tumor (g) x ± SD” value in the series on W256 cancer sarcoma (10 mg/kg, iv × 2(3, 5)) was found to be 2.07 ± 1.11 g; in the series on W256 cancer sarcoma (30 mg/kg, iv × 7) it was 0.40 ± 0.15 g; in the series on LM-3 human hepatoma (15 mg/kg), 1.110 ± 0.11 g; in the series with LM-3 human hepatoma (30 mg/kg), 0.242 ± 0.11 g; in the series with S180 sarcoma (30 mg/kg), 0.95 ± 0.22 g. Moreover, the Inhibition rate % with W256 cancer sarcoma (10 mg/kg, iv × 2(3, 5), listed as CTX) is 38.6%; with W256 cancer sarcoma (30 mg/kg, iv × 7) it was 88.1** %; in the series on LM-3 human hepatoma (15 mg/kg), 27.21%; in the series on LM-3 human hepatoma (30 mg/kg), 84.13%; in the series on S180 sarcoma (30 mg/kg, listed as CTX) it was 39.5%. For the same compound, the “Weight of animal start/end: end” value with LM-3 human hepatoma (15 mg/kg) is recorded as 25.1; in the series with LM-3 human hepatoma (30 mg/kg), 25.6. For the same compound, the results for the “Weight of animal start/end: start” value with LM-3 human hepatoma (15 mg/kg) and with LM-3 human hepatoma (30 mg/kg) were 20.6 and 20.4, respectively.
`Nc1ccn([C@@H]2O[C@H](CO)[C@@H](O)C2(F)F)c(=O)n1` [Gemcitabine, gemcitabine hydrochloride]: in [11], the Inhibition rate % was 23.04% and the “Weight of tumor (g) x ± SD” value is 0.1426 ± 0.078 g.
For `CC(=O)O[C@@]12CO[C@@H]1C[C@H](O)[C@@]1(C)C(=O)[C@H](O)C3=C(C)[C@@H](OC(=O)[C@H](O)[C@@H](NC(=O)OC(C)(C)C)c4ccccc4)C[C@@](O)([C@@H](OC(=O)c4ccccc4)[C@H]21)C3(C)C` [Docetaxel], in series [12], the Inhibition rate % was found to be 56.80% and the “Weight of tumor (g) x ± SD” value was 1.27 ± 0.88 g.
Consider `O=C1c2c(O)ccc(O)c2C(=O)c2c(NCCNCCO)ccc(NCCNCCO)c21` [DHAD, Mitoxantrone], for which, in the series on S180 sarcoma (2 mg/kg), the Inhibition rate % is 51.0% and the “Weight of tumor (g) x ± SD” value is 0.77 ± 0.19 g.
Consider `N.N.[Cl][Pt][Cl]` [Cisplatin], for which, in the series with A549 human lung cancer (1 mg/kg), the “Inhibition rate %” value is on record as 41.07%, the “Weight of animal (g) start/end: end” value came out at 24.5 g, the “Weight of animal (g) start/end: start” value is 20.3 g and the “Weight of tumor (g) x ± SD” value stood at 0.772 ± 0.15 g. Further, in the series on A549 human lung cancer (2 mg/kg), the “Inhibition rate %” value turned out to be 86.03%, the “Weight of animal (g) start/end: end” value worked out at 23.6 g, the “Weight of animal (g) start/end: start” value turned out to be 20.3 g and the “Weight of tumor (g) x ± SD” value was determined as 0.183 ± 0.05 g.
